Some test systems named below: MDA-MB-231; UO-31; CAKI-1; SW-620; Hs-578T; HCT-116; NCI-H226; SF-268; HCT-15; U-251; UACC-62; SK-OV-3; MOLT-4; MCF7; NCI-H23; HOP-62; HT-29; OVCAR-3; NCI-H460.
Assay in all cases: NCI anticancer screen, dose series, 48 h

Each structure is given as a SMILES string.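 Exposure lasted 48 hours, with cells grown in 96-well plates and compounds tested at five concentrations. GI50 = concentration required for 50% inhibition of growth.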 The source made the active and inactive calls. Rule as the data show it: active = GI50 up to about 1.1 µM and inactive = higher.

With `CC(=O)Nc1ccc(-c2nc3ccccc3s2)cc1Cl`, the GI50 with MDA-MB-231 was 67.8 µM (inactive); with UO-31, 27.7 µM (inactive); with CAKI-1 it was 56.5 µM (inactive); in the assay with SW-620, > 100 µM (inactive); with Hs-578T, 17.9 µM (inactive); in the assay with HCT-116, 58.7 µM (inactive). The GI50 with NCI-H226 is 0.762 µM (active); in the assay with SF-268, 56.8 µM (inactive); in the assay with HCT-15 it was 41.4 µM; in the assay with U-251, > 84.1 µM (inactive); in the assay on UACC-62 it was > 73.5 µM (inactive); in the assay with SK-OV-3 it was 40.6 µM (inactive). In addition, the GI50 is > 83.4 µM (inactive) with MOLT-4; < 0.0399 µM (active) with MCF7; 51.4 µM (inactive) with NCI-H23; 22.7 µM (inactive) in the assay with HOP-62; > 95.5 µM (inactive) in the assay on HT-29.
As to `O=C(Nc1ccc(N2C(=O)CSC2c2cccs2)cc1)c1ccc(N2C(=O)CSC2c2cccs2)cc1` (stereo unspecified), the GI50 in the assay on MDA-MB-231, in the assay with UO-31, with CAKI-1, in the assay with SW-620, in the assay on Hs-578T and in the assay on HCT-116 was > 100 µM (inactive) each time. Also, the GI50 was > 100 µM (inactive) with SF-268; > 100 µM in the assay on HCT-15; > 100 µM (inactive) in the assay with OVCAR-3; 86.5 µM (inactive) with U-251; 56.5 µM (inactive) with UACC-62; > 100 µM (inactive) in the assay with SK-OV-3. The GI50 was 39.5 µM (inactive) in the assay on MOLT-4; 62.1 µM (inactive) with MCF7; > 100 µM (inactive) in the assay on NCI-H460; 24.8 µM (inactive) with NCI-H23; 95.3 µM (inactive) in the assay with HOP-62; > 100 µM (inactive) in the assay on HT-29.
As for `COc1ccccc1NC(=S)N/N=C/c1c(C)n(C)n(-c2ccccc2)c1=O`, the GI50 in the assay with MDA-MB-231 is > 100 µM (inactive); with UO-31, > 100 µM (inactive); in the assay with CAKI-1, > 100 µM (inactive); with SW-620 it was 91.8 µM (inactive); with Hs-578T, 37.8 µM (inactive); in the assay with HCT-116 it was > 100 µM (inactive). For the same compound, the GI50 in the assay on NCI-H226 is 82.4 µM (inactive); with SF-268 it was 45.1 µM (inactive); in the assay with HCT-15, 41.3 µM; in the assay on U-251 it was > 100 µM (inactive); in the assay with UACC-62, > 100 µM (inactive); with SK-OV-3 it was 35.3 µM (inactive). The GI50 in the assay on MOLT-4 was 41.5 µM (inactive); with MCF7, > 100 µM (inactive); in the assay with NCI-H460, > 100 µM (inactive); in the assay on NCI-H23, > 100 µM (inactive); in the assay on HOP-62 it was 53.3 µM (inactive); with HT-29, > 100 µM (inactive).
`Cc1ccc2c(c1)C(=O)C1(Cc3ccccc3C1=O)C2` (stereo unspecified): the GI50 was > 100 µM (inactive) with MDA-MB-231; 1.86 µM (inactive) in the assay on UO-31; > 100 µM (inactive) in the assay with SW-620; > 100 µM (inactive) with Hs-578T; > 100 µM (inactive) in the assay with HCT-116; > 100 µM (inactive) in the assay on NCI-H226. The GI50 is > 100 µM (inactive) in the assay on SF-268; > 100 µM with HCT-15; > 100 µM (inactive) with OVCAR-3; > 100 µM (inactive) in the assay with U-251; 28.9 µM (inactive) in the assay with UACC-62; 31.2 µM (inactive) with SK-OV-3. The GI50 was > 100 µM (inactive) in the assay on MOLT-4; > 100 µM (inactive) in the assay with MCF7; > 100 µM (inactive) with NCI-H460; > 100 µM (inactive) in the assay on NCI-H23; 47 µM (inactive) in the assay on HOP-62; > 100 µM (inactive) in the assay with HT-29.
On to `CCn1nc(-c2ccccc2)c2c1N(C)c1ccccc1-n1c(-c3ccccc3)nnc1-2`, for which the GI50 in the assay on MDA-MB-231 was 13.4 µM (inactive); with UO-31, 14.2 µM (inactive); in the assay with SW-620 it was 16.1 µM (inactive); with Hs-578T it was 19 µM (inactive); in the assay with HCT-116 it was 13.1 µM (inactive); with NCI-H226, 17.2 µM (inactive). The GI50 in the assay with SF-268 was 16.1 µM (inactive); in the assay with HCT-15 it was 10.4 µM; in the assay on U-251 it was 15 µM (inactive); with UACC-62, 12.8 µM (inactive); with SK-OV-3, 18.9 µM (inactive); in the assay with MOLT-4 it was > 10 µM (inactive). For the same compound, the GI50 with MCF7 is 5.45 µM (inactive); in the assay on NCI-H460 it was 14.3 µM (inactive); in the assay on NCI-H23, 14 µM (inactive); with HOP-62 it was 17.9 µM (inactive).
`O=C1CCC2(c3ccccc3)Nc3ccncc3N12` (stereo unspecified): the GI50 in the assay with MDA-MB-231, in the assay on UO-31, in the assay on SW-620, in the assay on Hs-578T, with HCT-116 and in the assay on NCI-H226 was > 10 µM (inactive) throughout. The GI50 with SF-268 was > 10 µM (inactive); with HCT-15, > 10 µM; with OVCAR-3, > 10 µM (inactive); in the assay with U-251, > 10 µM (inactive); in the assay with UACC-62, > 10 µM (inactive); in the assay with SK-OV-3, 3.49 µM (inactive). The GI50 with MOLT-4, in the assay with MCF7, with NCI-H460, in the assay on NCI-H23 and in the assay with HT-29 was > 10 µM (inactive) each time.
In the case of `Cc1cccc2c(N)c3cccc(C(=O)NCCNCCN)c3nc12`, the GI50 with MDA-MB-231 is 1.96 µM (inactive); with UO-31 it was 12.3 µM (inactive); in the assay with CAKI-1, 3.8 µM (inactive); with SW-620, 8.02 µM (inactive); with Hs-578T it was 1.24 µM (inactive); with HCT-116, 2.52 µM (inactive). Moreover, the GI50 in the assay with SF-268 is 0.0698 µM (active); in the assay with HCT-15, 12.4 µM; in the assay with OVCAR-3, 21.9 µM (inactive); in the assay on U-251 it was 0.736 µM (active); in the assay on UACC-62, 7.4 µM (inactive); in the assay on SK-OV-3 it was 26.9 µM (inactive). For the same compound, the GI50 in the assay with MOLT-4 is 0.0649 µM (active); in the assay on MCF7, 0.369 µM (active); in the assay with NCI-H460 it was 0.558 µM (active); in the assay with NCI-H23, 0.598 µM (active); with HOP-62, 0.533 µM (active); in the assay on HT-29, 2.9 µM (inactive).
Regarding `Cn1c(=O)c(Br)c(C=O)n(CCO[N+](=O)[O-])c1=O`, the GI50 in the assay on MDA-MB-231 is 2.53 µM (inactive); in the assay with UO-31 it was > 10 µM (inactive); in the assay with SW-620, 2.26 µM (inactive); with Hs-578T, 31 µM (inactive); in the assay on HCT-116, 3.78 µM (inactive); in the assay with NCI-H226 it was 51.3 µM (inactive). In addition, the GI50 in the assay with SF-268 is 4.28 µM (inactive); in the assay on HCT-15, 4.83 µM; in the assay with U-251 it was 3.02 µM (inactive); with UACC-62 it was 1.23 µM (inactive); in the assay with SK-OV-3, 18.5 µM (inactive); with MOLT-4, 1.87 µM (inactive). For the same compound, the GI50 with MCF7 is 1.97 µM (inactive); with NCI-H460, 15.9 µM (inactive); in the assay with NCI-H23, 5.7 µM (inactive); in the assay with HOP-62, 21.6 µM (inactive).
`COc1ccc2c(c1)N=C1CSC(c3ccccc3Cl)N1C2` (stereo unspecified): the GI50 in the assay on MDA-MB-231 was 27.4 µM (inactive); in the assay with UO-31 it was 0.351 µM (active); in the assay on CAKI-1 it was 3.31 µM (inactive); in the assay with SW-620, 14.8 µM (inactive); in the assay on Hs-578T it was 45.2 µM (inactive); in the assay on HCT-116, 3.92 µM (inactive). The GI50 in the assay with NCI-H226 was 24 µM (inactive); with SF-268, 16.4 µM (inactive); in the assay on HCT-15, 9.68 µM; in the assay on U-251 it was 10.8 µM (inactive); in the assay with UACC-62, 4.08 µM (inactive); in the assay on SK-OV-3, 15.1 µM (inactive). In addition, the GI50 with MOLT-4 was 0.659 µM (active); in the assay with MCF7, 12.2 µM (inactive); in the assay on NCI-H460, 3.12 µM (inactive); in the assay with NCI-H23, 17.9 µM (inactive); with HOP-62 it was 14.5 µM (inactive); in the assay with HT-29, 4.82 µM (inactive).
